The structures appear in SMILES notation.

The values below come from patent US20260274892A1, “MACROCYCLIC BROAD SPECTRUM ANTIBIOTICS” (RQx Pharmaceuticals, Inc., priority 2017, published 2026).

Assay [1] has as its system Methicillin Resistant Staphylococcus aureus strain USA 200. Nature of the assay: Minimum inhibitory concentration (MIC), CLSI broth micro-dilution, S. aureus. The assay is classed as cell-based. As to conditions: Staphylococcus aureus, MRSA / USA200; Table 6; MRSA USA 200; cation adjusted Mueller Hinton Broth + 0.002% Tween-80; 35° C., 22 hours. In short, it runs like this:
(§1)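 Antibacterial potency is measured as MIC by the CLSI broth dilution method. Bacteria at OD600 0.0005 in Tween-80-supplemented cation-adjusted Mueller Hinton broth face ten twofold compound dilutions for 22 h at 35° C.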
A general note: Broth dilution looks for growth in wells or tubes with falling amounts of substance.

Assay [2] concerns Escherichia coli ATCC 25922. In words: Minimum inhibitory concentration (MIC), CLSI broth micro-dilution, E. coli. The assay is classed as cell-based. As to conditions: Escherichia coli. In short, it runs like this: as §1
The mark [3] stands for this setting: ATCC25922, 22 h, Table 6, cation adjusted Mueller Hinton Broth + 0.002% Tween-80, 35° C.

Broadly, the MIC is the smallest concentration in the dilution series that meets the test's criterion for growth inhibition. For `Cc1nc(-c2ccc(N3CCCCCCC3)cc2)nc(C)c1C(=O)N[C@@H](CCN)C(=O)N(C)[C@@H]1C(=O)N[C@@H](C)C(=O)N[C@H](C(=O)NCC#N)Cc2ccc(OCCN)c(c2)-c2cc1ccc2OCCN` (racemic) [Compound 326, rac-(8S,11S,14S)-3,18-bis(2-aminoethoxy)-N-(cyanomethyl)-11-methyl-14-[methyl-[rac-(2S)-4-amino-2-[[2-[4-(azocan-1-yl)phenyl]-4,6-dimethyl-pyrimidine-5-carbonyl]amino]butanoyl]amino]-10,13-dioxo-9,12-diazatricyclo[13.3.1.12,6]icosa-1(18),2(20),3,5,15(19),16-hexaene-8-carboxamide], the values for the MIC in assay [1] and in assay [2] (setting [3]) were 0.031 µM and 0.13 µM, respectively.

`CCCCCOc1ccc(-c2nc(C)c(C(=O)N[C@@H](CCN)C(=O)N(C)[C@@H]3C(=O)N[C@@H](C)C(=O)N[C@H](C(=O)NCC#N)Cc4ccc(OCCN)c(c4)-c4cc3ccc4OCCN)c(C)n2)cc1` (racemic) [Compound 328, rac-(8S,11S,14S)-3,18-bis(2-aminoethoxy)-N-(cyanomethyl)-11-methyl-14-[methyl-[rac-(2S)-4-amino-2-[[4,6-dimethyl-2-(4-pentoxyphenyl)pyrimidine-5-carbonyl]amino]butanoyl]amino]-10,13-dioxo-9,12-diazatricyclo[13.3.1.12,6]icosa-1(18),2(20),3,5,15(19),16-hexaene-8-carboxamide]: the minimum inhibitory concentration (MIC) came to 0.0093 µM in assay [1] and 0.07 µM in assay [2] (setting [3]).

For the compound `Cc1nc(-c2ccc(OCCC(C)C)cc2)nc(C)c1C(=O)N[C@@H](CCN)C(=O)N(C)[C@@H]1C(=O)N[C@@H](C)C(=O)N[C@H](C(=O)NCC#N)Cc2ccc(OCCN)c(c2)-c2cc1ccc2OCCN` (racemic) [Compound 329, rac-(8S,11S,14S)-3,18-bis(2-aminoethoxy)-N-(cyanomethyl)-11-methyl-14-[methyl-[rac-(2S)-4-amino-2-[[2-(4-isopentyloxyphenyl)-4,6-dimethyl-pyrimidine-5-carbonyl]amino]butanoyl]amino]-10,13-dioxo-9,12-diazatricyclo[13.3.1.12,6]icosa-1(18),2(20),3,5,15(19),16-hexaene-8-carboxamide], the MIC in assay [1] was 0.011 µM; in assay [2] (setting [3]) it was 0.11 µM.

Take `CCCOc1ccc(-c2nc(C)c(C(=O)N[C@@H](CCN)C(=O)N(C)[C@@H]3C(=O)N[C@@H](C)C(=O)N[C@H](C(=O)NCC#N)Cc4ccc(OCCN)c(c4)-c4cc3ccc4OCCN)c(C)n2)cc1` (racemic) [Compound 330, rac-(8S,11S,14S)-3,18-bis(2-aminoethoxy)-N-(cyanomethyl)-11-methyl-14-[methyl-[rac-(2S)-4-amino-2-[[4,6-dimethyl-2-(4-propoxyphenyl)pyrimidine-5-carbonyl]amino]butanoyl]amino]-10,13-dioxo-9,12-diazatricyclo[13.3.1.12,6]icosa-1(18),2(20),3,5,15(19),16-hexaene-8-carboxamide]: the values for the MIC in assay [1] and in assay [2] (setting [3]) were 0.033 µM and 0.26 µM, respectively.

Turning to `CCCCOc1ccc(-c2nc(C)c(C(=O)N[C@@H](CCN)C(=O)N(C)[C@@H]3C(=O)N[C@@H](C)C(=O)N[C@H](C(=O)NCC#N)Cc4ccc(OCCN)c(c4)-c4cc3ccc4OCCN)c(C)n2)cc1` (racemic) [Compound 331, rac-(8S,11S,14S)-3,18-bis(2-aminoethoxy)-N-(cyanomethyl)-11-methyl-14-[methyl-[rac-(2S)-4-amino-2-[[2-(4-butoxyphenyl)-4,6-dimethyl-pyrimidine-5-carbonyl]amino]butanoyl]amino]-10,13-dioxo-9,12-diazatricyclo[13.3.1.12,6]icosa-1(18),2(20),3,5,15(19),16-hexaene-8-carboxamide], the MIC was 0.0081 µM in assay [1] and 0.13 µM in assay [2] (setting [3]).

With `CCCCCCOc1ccc(-c2nc(C)c(C(=O)N[C@@H](CCN)C(=O)N(C)[C@@H]3C(=O)N[C@@H](C)C(=O)N[C@H](C(=O)NCC#N)Cc4ccc(OCCN)c(c4)-c4cc3ccc4OCCN)c(C)n2)cc1` (racemic) [Compound 332, rac-(8S,11S,14S)-3,18-bis(2-aminoethoxy)-N-(cyanomethyl)-11-methyl-14-[methyl-[rac-(2S)-4-amino-2-[[2-(4-hexoxyphenyl)-4,6-dimethyl-pyrimidine-5-carbonyl]amino]butanoyl]amino]-10,13-dioxo-9,12-diazatricyclo[13.3.1.12,6]icosa-1(18),2(20),3,5,15(19),16-hexaene-8-carboxamide], the minimum inhibitory concentration (MIC) in assay [1] worked out at 0.0078 µM; in assay [2] (setting [3]) it was 0.063 µM.

Take `COCCOc1ccc(-c2nc(C)c(C(=O)N[C@@H](CCN)C(=O)N(C)[C@@H]3C(=O)N[C@@H](C)C(=O)N[C@H](C(=O)NCC#N)Cc4ccc(OCCN)c(c4)-c4cc3ccc4OCCN)c(C)n2)cc1` (racemic) [Compound 333, rac-(8S,11S,14S)-3,18-bis(2-aminoethoxy)-N-(cyanomethyl)-11-methyl-14-[methyl-[rac-(2S)-4-amino-2-[[2-[4-(2-methoxyethoxy)phenyl]-4,6-dimethyl-pyrimidine-5-carbonyl]amino]butanoyl]amino]-10,13-dioxo-9,12-diazatricyclo[13.3.1.12,6]icosa-1(18),2(20),3,5,15(19),16-hexaene-8-carboxamide]: the minimal inhibitory concentration (MIC) in assay [1] was found to be 1 µM; in assay [2] (ATCC25922, Table 6, cation adjusted Mueller Hinton Broth + 0.002% Tween-80, 35° C., 22 hours), 2 µM.

Turning to `Cc1nc(-c2ccc3c(c2)OCCO3)nc(C)c1C(=O)N[C@@H](CCN)C(=O)N(C)[C@@H]1C(=O)N[C@@H](C)C(=O)N[C@H](C(=O)NCC#N)Cc2ccc(OCCN)c(c2)-c2cc1ccc2OCCN` (racemic) [Compound 334, rac-(8S,11S,14S)-3,18-bis(2-aminoethoxy)-N-(cyanomethyl)-11-methyl-14-[methyl-[rac-(2S)-4-amino-2-[[2-(2,3-dihydro-1,4-benzodioxin-6-yl)-4,6-dimethyl-pyrimidine-5-carbonyl]amino]butanoyl]amino]-10,13-dioxo-9,12-diazatricyclo[13.3.1.12,6]icosa-1(18),2(20),3,5,15(19),16-hexaene-8-carboxamide], the MIC in assay [1] came to 0.5 µM; in assay [2] (setting [3]), 4 µM.

For the compound `Cc1nc(-c2ccc(OC3CCCC3)cc2)nc(C)c1C(=O)N[C@@H](CCN)C(=O)N(C)[C@@H]1C(=O)N[C@@H](C)C(=O)N[C@H](C(=O)NCC#N)Cc2ccc(OCCN)c(c2)-c2cc1ccc2OCCN` (racemic) [Compound 336, rac-(8S,11S,14S)-3,18-bis(2-aminoethoxy)-N-(cyanomethyl)-11-methyl-14-[methyl-[rac-(2S)-4-amino-2-[[2-[4-(cyclopentoxy)phenyl]-4,6-dimethyl-pyrimidine-5-carbonyl]amino]butanoyl]amino]-10,13-dioxo-9,12-diazatricyclo[13.3.1.12,6]icosa-1(18),2(20),3,5,15(19),16-hexaene-8-carboxamide], the minimum inhibitory concentration (MIC) in assay [1] was 0.016 µM; in assay [2] (setting [3]), 0.15 µM.

Turning to `Cc1nc(-c2ccc(OC3CCCCC3)cc2)nc(C)c1C(=O)N[C@@H](CCN)C(=O)N(C)[C@@H]1C(=O)N[C@@H](C)C(=O)N[C@H](C(=O)NCC#N)Cc2ccc(OCCN)c(c2)-c2cc1ccc2OCCN` (racemic) [Compound 337, rac-(8S,11S,14S)-3,18-bis(2-aminoethoxy)-N-(cyanomethyl)-11-methyl-14-[methyl-[rac-(2S)-4-amino-2-[[2-[4-(cyclohexoxy)phenyl]-4,6-dimethyl-pyrimidine-5-carbonyl]amino]butanoyl]amino]-10,13-dioxo-9,12-diazatricyclo[13.3.1.12,6]icosa-1(18),2(20),3,5,15(19),16-hexaene-8-carboxamide], the minimal inhibitory concentration (MIC) in assay [1] turned out to be 0.012 µM; in assay [2] (setting [3]), 0.11 µM.

In the case of `Cc1nc(-c2ccc(OCCC(C)(C)C)cc2)nc(C)c1C(=O)N[C@@H](CCN)C(=O)N(C)[C@@H]1C(=O)N[C@@H](C)C(=O)N[C@H](C(=O)NCC#N)Cc2ccc(OCCN)c(c2)-c2cc1ccc2OCCN` (racemic) [Compound 338, rac-(8S,11S,14S)-3,18-bis(2-aminoethoxy)-N-(cyanomethyl)-11-methyl-14-[methyl-[rac-(2S)-4-amino-2-[[2-[4-(3,3-dimethylbutoxy)phenyl]-4,6-dimethyl-pyrimidine-5-carbonyl]amino]butanoyl]amino]-10,13-dioxo-9,12-diazatricyclo[13.3.1.12,6]icosa-1(18),2(20),3,5,15(19),16-hexaene-8-carboxamide], the results for the MIC in assay [1] and in assay [2] (setting [3]) were 0.012 µM and 0.13 µM, respectively.

`CCC(CC)Oc1ccc(-c2nc(C)c(C(=O)N[C@@H](CCN)C(=O)N(C)[C@@H]3C(=O)N[C@@H](C)C(=O)N[C@H](C(=O)NCC#N)Cc4ccc(OCCN)c(c4)-c4cc3ccc4OCCN)c(C)n2)cc1` (racemic) [Compound 339, rac-(8S,11S,14S)-3,18-bis(2-aminoethoxy)-N-(cyanomethyl)-11-methyl-14-[methyl-[rac-(2S)-4-amino-2-[[2-[4-(1-ethylpropoxy)phenyl]-4,6-dimethyl-pyrimidine-5-carbonyl]amino]butanoyl]amino]-10,13-dioxo-9,12-diazatricyclo[13.3.1.12,6]icosa-1(18),2(20),3,5,15(19),16-hexaene-8-carboxamide]: the values for the MIC in assay [1] and in assay [2] (setting [3]) were 0.047 µM and 0.25 µM, respectively.

On to `Cc1nc(-c2ccc(OC3CCCCCC3)cc2)nc(C)c1C(=O)N[C@@H](CCN)C(=O)N(C)[C@@H]1C(=O)N[C@@H](C)C(=O)N[C@H](C(=O)NCC#N)Cc2ccc(OCCN)c(c2)-c2cc1ccc2OCCN` (racemic) [Compound 340, rac-(8S,11S,14S)-3,18-bis(2-aminoethoxy)-N-(cyanomethyl)-11-methyl-14-[methyl-[rac-(2S)-4-amino-2-[[2-[4-(cycloheptoxy)phenyl]-4,6-dimethyl-pyrimidine-5-carbonyl]amino]butanoyl]amino]-10,13-dioxo-9,12-diazatricyclo[13.3.1.12,6]icosa-1(18),2(20),3,5,15(19),16-hexaene-8-carboxamide], for which the MIC was determined as 0.023 µM in assay [1] and 0.063 µM in assay [2] (setting [3]).
